Data published in EP0386667B1, “6-Amino-6-desoxyfumagillols, production and use thereof” (Takeda Chemical Industries, Ltd., priority 1989, dated 1990).
Values after ≈ are worked out from the molar mass of the structure shown.

Tests used:
[1] = system: bFGF-induced angiogenesis; experiment: angiogenesis inhibitory activity by the rat cornea micropocket method; assay type: in vivo, Sprague-Dawley rats; details: number of rats on which angiogenesis inhibitory activity was observed relative to the number of rats tested, sample pellet 20 µg beside bFGF (250 ng) pellet in cornea, observed after 10 days; for responders at 20 µg/pellet: Rattus norvegicus, 240 h, read-out: Inhibitory Rate (converted)
Method: The object compounds (I) obtained in the Working Examples given below were evaluated for angiogenesis inhibitory activity by the rat cornea micropocket method.
Essentially the same method of Gimbrone et al. [J. National Cancer Institute, 52, 413-419 (1974)] was followed. Thus, adult male Sprague-Dawley rats 11 to 16 week old) were anesthetized with nembutal and locally anesthetized by instillation of xylocaine eyedrops onto the eyeball. The cornea was incised to a length of about 2 mm at about 2 mm inside from the corneal circumference by means of an injection needle, and a sustained release pellet containing basic fibroblast growth growth factor (bFGF; bovine brain-derived, purified product; R & D Inc.) and a sustained release pellet containing the test sample were inserted side by side into the incision so that the bFGF pellet was located on the central side in the cornea. In the control group, the bFGF pellet and a sample-free pellet were inserted into the cornea. After 10 days, the cornea was observed under a stereoscopic microscope.
The sustained release pellets were prepared in the following manner. An ethylene-vinyl acetate copolymer (Takeda Chemical Industries, Ltd.) was dissolved in dichloromethane to a concentration of 8%. A 3 µl portion of the solution was air-dried on a glass dish, an aqueous solution of bFGF (250 ng) was then placed thereon and air-dried and, finally 3 µl of the above ethylene-vinyl acetate copolymer solution was placed further thereon and air-dried to give a sandwich sheet. This sandwich sheet was made round into a bFGF pellet. The test sample pellets were prepared by dissolving each sample in ethanol in a concentration of 20 µg/2 µl, mixing the solution with 6 µl of an ethylene-vinyl acetate copolymer solution, air-drying the mixed solution in a glass dish and making the thus-obtained sheet round.
Incidentally, in the Table 1 below, the inhibitory rate means the number of rats on which angiogenesis inhibitory activity was observed relative to the number of rats tested.

[2] = system: Human umbilical vein endothelial cells; experiment: inhibition of human umbilical vein endothelial cell growth (MTT); assay type: cell-based; details: rFGF 2 ng/ml, 5-day culture, concentration giving 50% OD value of control; for IC50: Homo sapiens, Endothelial cell, 120 h, read-out: IC₅₀
Method: Human umbilical vein endothelial cells were isolated by perfusion of an umbilical vein with a trypsin-containing medium. The cells were cultured in sequence in GIT medium (Nihon Pharm. In.) supplemented with 2.5% fetal bovine serum and 2.0 ng/ml or recombinant human fibroblast growth factor (hereinafter simply referred to rFGF, prepared at Biotechnology Research Laboratories, Takeda Chemical Industries, Ltd.).
A suspension of human vein endothelial cells at the cell density of 2 x 10³ (100 µl) was seeded on 96-well incubation plate (Nunc, 1-67008), and incubation was conducted in a gas-controlled thermostat vessel. […] After 5-day culture, the medium was removed by suction, 100 µl of 1 mg/ml of MTT solution [3-(4,5-dimethyl-2-thiazolyl)-2,5-diphenyl-2H-tetrazolium bromide was dissolved in the medium] was added and kept warming for 4 hours. Then, 100 µl of a 10% SDS solution (aqueous solution of sodium dodecyl sulfate) was added, and the mixture was kept warming for 5-6 hours. The cells and MTT pigment were solubilized, and the optical density ([…]) was measured using a spectrophotometer. The OD value of the control group to which no test sample was added was set as 100%, and the activity of each test sample for inhibiting endothelial cell growth was shown in Table 2 by the concentration of the test compound giving 50% OD value, i.e. IC₅₀ value.

Compound | responders at 20 µg/pellet [1] | IC50 [2] | Inhibitory Rate [1] | IC₅₀ [2]
CO[C@@H]1[C@@H](N)CC[C@]2(CO2)[C@H]1[C@@]1(C)O[C@@H]1CC=C(C)C [Example 16, 6β-Amino-6-desoxyfumagillol] | 50% | 9.49 ng/mL (≈ 33.7 nM) |  | 
CO[C@@H]1[C@H](NC(N)=O)CC[C@]2(CO2)[C@H]1[C@@]1(C)O[C@@H]1CC=C(C)C [Example 13, 6α-Ureido-6-desoxyfumagillol] | 100% | 0.1 ng/mL (≈ 0.308 nM) |  | 
CO[C@@H]1[C@H](NC(=O)NCCCl)CC[C@]2(CO2)[C@H]1[C@@]1(C)O[C@@H]1CC=C(C)C [Example 12, 6α-[N′-(2-chloroethyl)ureido]-6-desoxyfumagillol] |  | 1.16 ng/mL (≈ 3 nM) |  | 
CO[C@@H]1[C@H](NC(=O)c2ccccc2)CC[C@]2(CO2)[C@H]1[C@@]1(C)O[C@@H]1CC=C(C)C [Example 8, 6α-Benzoylamino-6-desoxyfumagillol] | 85.7% | 0.2 ng/mL (≈ 0.519 nM) |  | 
6β-(N′-chloroacetylureido)-4′,5′-dihydro-6-desoxyfumagillol [Example 14] |  |  | 5/5 | 0.14 ng/mL
CO[C@@H]1[C@H](Nc2ccccc2)CC[C@]2(CO2)[C@H]1[C@@]1(C)O[C@@H]1CC=C(C)C [Example 2, 6α-Phenylamino-6-desoxyfumagillol] | 62.5% |  |  | 
CO[C@H]1[C@H]([C@@]2(C)O[C@@H]2CC=C(C)C)[C@]2(CC[C@@H]1[N+]1(C)CCCC1)CO2 [Example 20, 6β-Pyrrolidino-6-desoxyfumagillol methyl iodide] | 42.9% |  |  | 
CO[C@@H]1[C@H](N)CC[C@]2(CO2)[C@H]1[C@@]1(C)O[C@@H]1CC=C(C)C [Example 1, 6α-Amino-desoxyfumagillol] |  | 7.92 ng/mL (≈ 28.1 nM) |  | 
CO[C@@H]1[C@H](NC(=O)OCC(C)C)CC[C@]2(CO2)[C@H]1[C@@]1(C)O[C@@H]1CC=C(C)C [Example 7, 6α-(Isobutyloxy-carbonylamino)-6-desoxyfumagillol] | 100% | 0.17 ng/mL (≈ 0.446 nM) |  | 
CO[C@@H]1[C@@H](N2CCCC2)CC[C@]2(CO2)[C@H]1[C@@]1(C)O[C@@H]1CC=C(C)C [Example 19, 6β-Pyrrolidino-6-desoxyfumagillol] | 66.7% |  |  | 
CO[C@@H]1[C@H](NC(=O)Nc2cccc3ccccc23)CC[C@]2(CO2)[C@H]1[C@@]1(C)O[C@@H]1CC=C(C)C [Example 11, 6α-[N′-(1-naphthyl)ureido]-6-desoxyfumagillol] | 100% | 0.34 ng/mL (≈ 0.755 nM) |  | 
CO[C@@H]1[C@H](NC(C)=O)CC[C@]2(CO2)[C@H]1[C@@]1(C)O[C@@H]1CC=C(C)C [Example 5, 6α-Acetylamino-6-desoxyfumagillol] | 57.1% | 0.06 ng/mL (≈ 0.186 nM) |  | 
CO[C@@H]1[C@H](NC(=S)Nc2cccc3ccccc23)CC[C@]2(CO2)[C@H]1[C@@]1(C)O[C@@H]1CC=C(C)C [Example 10, 6α-[N′-(1-naphthyl)thioureido]-6-desoxyfumagillol] | 40% | 8.13 ng/mL (≈ 17.4 nM) |  | 
CO[C@@H]1[C@H](N(C)C(C)=O)CC[C@]2(CO2)[C@H]1[C@@]1(C)O[C@@H]1CC=C(C)C [Example 3, 6α-(Acetyl)methylamino-6-desoxyfumagillol] | 50% | 3.21 ng/mL (≈ 9.51 nM) |  | 
CO[C@@H]1[C@H](NS(=O)(=O)c2ccc(C)cc2)CC[C@]2(CO2)[C@H]1[C@@]1(C)O[C@@H]1CC=C(C)C [Example 6, 6α-(p-Toluenesulfonylamino)-6-desoxyfumagillol] | 75% | 7.04 ng/mL (≈ 16.2 nM) |  | 
CO[C@@H]1[C@H](NC(=O)NC(=O)CCl)CC[C@]2(CO2)[C@H]1[C@@]1(C)O[C@@H]1CC=C(C)C [Example 9, 6α-(N′-chloroacetylureido)-6-desoxyfumagillol] | 100% | 0.057 ng/mL (≈ 0.142 nM) |  | 
